Test results from US11793820B2, “Dry powder foamable formulations for delivery of medicaments through the mucosa” (priority 2021, dated 2023).

Key:
[1] = cited from earlier work
[2] = system: epirubicin-induced oral mucositis; details: cited from earlier work
[3] = Safety and tolerability of the oral rinse; type: in vivo, human; details: for safe administration: 200 mg WR-2721 (10 ml 0.09 M) or 125 mg WR-1065 (10 ml 0.09 M)
Method: The amifostine is administered to the patient in the formulation described above (Table 2). Specifically, 125 mg of amifostine is provided as an oral rinse. The patient rinses for approximately one minute and thereafter, expels/discards the rinse. The rinse process can be repeated.
In this study, WR-1065 is detected in washed, isolated, vital mouth mucosa cells at a concentration of about 3.7-19.9 ng/10^5 cells.

[4] = intravenous administration; cited from earlier work
[5] = after amifostine injection; cited from earlier work

SMILES | pH of the maximal rate of hydrolysis ([1]; hydrolysis of P-S bond to WR-1065) | stability at the gastric pH ([1]; pH from 1 to 3) | difference between patients given amifostine oral rinse and control [2] | safe administration [3] | clearance from the plasma [4] | time of maximum tissue concentrations of WR-1065 [5] | systemic side-effects ([3]; oral rinse) | tolerability ([3]; oral rinse)
NCCCNCCSP(=O)(O)O [Amifostine, S-2-(3-aminopropylamino) ethyl dihydrogen phosphorothioate] | 3.0 | unstable | no significant difference | can be safely administered | rapidly cleared | – | – | –
NCCCNCCS [WR-1065] | – | – | – | can be safely administered | – | within five to fifteen minutes | no systemic side-effects | well-tolerated
